Molecules are shown by their SMILES. Read-outs that look alike come from different tables or passages of the source.

Assay type in all cases: biochemical
The target of assay [1] is M. tuberculosis riboflavin synthase (recombinant) (Mycobacterium tuberculosis, UniProt P9WK35). Put plainly: Kinetic assay of riboflavin synthase inhibitors, M. tuberculosis enzyme. The note with it: for Kcat (rate constant ES → E + P) / Kis (ES + I ⇌ ESI) / Ks (substrate dissociation constant, E + S ⇌ ES) / Ki (E + I ⇌ EI): substrate 3 varied, Tris·HCl pH 7.0.
M. tuberculosis riboflavin synthase (recombinant), sequence (P9WK35 whole entry): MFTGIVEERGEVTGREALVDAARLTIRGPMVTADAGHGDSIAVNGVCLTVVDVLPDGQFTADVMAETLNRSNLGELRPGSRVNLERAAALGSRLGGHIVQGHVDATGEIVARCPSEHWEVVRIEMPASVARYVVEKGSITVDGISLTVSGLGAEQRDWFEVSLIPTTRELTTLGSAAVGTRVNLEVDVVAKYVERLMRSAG
For assay [2], the target named is M. tuberculosis lumazine synthase (recombinant homopentameric) (Mycobacterium tuberculosis, UniProt P9WHE9). The note with it: for inhibitory activity in words: lumazine synthase inhibition, qualitative statement.
M. tuberculosis lumazine synthase (recombinant homopentameric), sequence (P9WHE9 whole entry): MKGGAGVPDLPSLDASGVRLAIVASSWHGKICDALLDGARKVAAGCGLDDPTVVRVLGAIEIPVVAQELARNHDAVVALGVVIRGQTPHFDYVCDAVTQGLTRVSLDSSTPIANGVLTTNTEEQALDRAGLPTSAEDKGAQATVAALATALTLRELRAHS
Assay [3] deals with E. coli riboflavin synthase (recombinant) (Escherichia coli, UniProt P0AFU8). Put plainly: Kinetic assay of riboflavin synthase inhibitors, E. coli enzyme.
E. coli riboflavin synthase (recombinant), sequence (P0AFU8 whole entry): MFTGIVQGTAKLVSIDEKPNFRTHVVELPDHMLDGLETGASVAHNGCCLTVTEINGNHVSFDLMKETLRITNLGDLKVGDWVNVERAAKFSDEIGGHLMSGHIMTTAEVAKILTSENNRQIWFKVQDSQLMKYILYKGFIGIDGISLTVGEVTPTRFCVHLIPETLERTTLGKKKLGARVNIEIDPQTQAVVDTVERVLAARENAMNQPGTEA
The target in assay [4] is T1, S. pombe lumazine synthase (recombinant homopentameric) (Schizosaccharomyces pombe, UniProt Q9UUB1).
T1 sequence (Q9UUB1 1-159): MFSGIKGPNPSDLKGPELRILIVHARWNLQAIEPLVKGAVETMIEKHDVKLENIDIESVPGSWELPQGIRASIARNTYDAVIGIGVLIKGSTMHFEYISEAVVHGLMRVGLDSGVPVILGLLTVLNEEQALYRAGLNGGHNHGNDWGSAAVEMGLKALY
In words: Kinetic assay of lumazine synthase inhibitors, S. pombe enzyme. The note with it: for Kcat (rate constant ES → E + P) / Kis (ES + I ⇌ ESI) / Ks (substrate dissociation constant, E + S ⇌ ES): substrate 2 constant, substrate 1 varied, Tris·HCl pH 7.0.

Setting [5] is: substrate 2 constant, substrate 1 varied, Tris·HCl pH 7.0.
The mark [6] stands for this setting: substrate 3 varied, Tris·HCl pH 7.0.

As for `O=C(CCl)Nc1c(NC[C@H](O)[C@H](O)[C@H](O)CO)[nH]c(=O)[nH]c1=O` [Compound 63, 2-Chloro-N-(2,4-dioxo-6-((2S,3S,4R)-2,3,4,5-tetrahydroxypentylamino)-1,2,3,4-tetrahydropyrimidin-5-yl)acetamide], in assay [1], the Mechanism of inhibition entry was “Uncompetitive”; the “Kcat (rate constant ES → E + P)” value stood at 0.66 ± 0.01 m^−1; the “Kis (ES + I ⇌ ESI)” value was above 1000 µM; the “Ks (substrate dissociation constant, E + S ⇌ ES)” value (shortened to “Ks”) is 8.6 ± 0.4 µM. Moreover, the Mechanism of inhibition entry in assay [2] is reported as “Partial”. Further, in assay [2] (setting [5]), the “Kcat (rate constant ES → E + P)” value turned out to be 0.62 ± 0.02 m^−1; the “Kis (ES + I ⇌ ESI)” value is 53 ± 12 µM; the “Ks” value was 24 ± 2 µM.

With `O=C(CC(F)(F)F)Nc1c(NC[C@H](O)[C@H](O)[C@H](O)CO)[nH]c(=O)[nH]c1=O` [Compound 66, N-(2,4-Dioxo-6-((2S,3S,4R)-2,3,4,5-tetrahydroxypentylamino)-1,2,3,4-tetrahydropyrimidin-5-yl)-3,3,3-trifluoropropanamide], in assay [1], the Mechanism of inhibition entry is recorded as “Uncompetitive”; the “Kcat (rate constant ES → E + P)” value is 0.18 ± 0.1 m^−1; the “Kis (ES + I ⇌ ESI)” value is above 1000 µM; the “Ks” value was determined as 6.6 ± 0.3 µM. Moreover, the Mechanism of inhibition result in assay [2] is “Partial”. In assay [2] (setting [5]), the “Kcat (rate constant ES → E + P)” value worked out at 0.76 ± 0.02 m^−1; the “Kis (ES + I ⇌ ESI)” value was 309 ± 125 µM; the “Ks” value came to 20 ± 1 µM.

For `C=C(C)C(=O)Nc1c(OC[C@H](O)[C@H](O)[C@H](O)CO)[nH]c(=O)[nH]c1=O` [Compound 46], in assay [1], the Mechanism of inhibition entry is “Uncompetitive”; the “Kcat (rate constant ES → E + P)” value was determined as 0.58 ± 0.01 m^−1; the “Kis (ES + I ⇌ ESI)” value was above 1000 µM; the “Ks” value worked out at 9.2 ± 0.6 µM. For the same molecule, the Mechanism of inhibition entry in assay [2] was “Uncompetitive”. Further, in assay [2] (pH 7), the “Kcat (rate constant ES → E + P)” value is 0.57 ± 0.01 m^−1. Besides, in assay [2] (setting [5]), the “Ki (E + I ⇌ EI)” value was above 1000 µM; the “Kis (ES + I ⇌ ESI)” value was above 1000 µM; the “Ks” value came out at 12 ± 1 µM.

`C=C(C)C(=O)Nc1c(NC[C@H](O)[C@H](O)[C@H](O)CO)[nH]c(=O)[nH]c1=O` [Compound 56, N-[2,4-Dioxo-6-((2S,3S,4R)-2,3,4,5-tetrahydroxypentylamino]-1,2,3,4-tetrahydropyrimidin-5-yl)methacrylamide]: in assay [1], the Mechanism of inhibition entry was “Partial”; the “Kcat (rate constant ES → E + P)” value came to 0.57 ± 0.02 m^−1; the “Kis (ES + I ⇌ ESI)” value amounted to 35 ± 14 µM; the “Ks” value amounted to 7.0 ± 0.6 µM. In addition, in assay [2], the Mechanism of inhibition entry was “Uncompetitive” and the “inhibitory activity in words” value was “inactive”. Moreover, in assay [2] (setting [5]), the “Kcat (rate constant ES → E + P)” value amounted to 0.52 ± 0.02 m^−1; the “Ki (E + I ⇌ EI)” value is above 1000 µM; the “Kis (ES + I ⇌ ESI)” value is above 1000 µM; the “Ks” value is 19 ± 2 µM.

For the molecule `CC1(O)C(=O)Nc2c([nH]c(=O)[nH]c2=O)N1C[C@H](O)[C@H](O)[C@H](O)CO` (stereo partly drawn) [Compound 69, 7-Hydroxy-7-methyl-8-[(2S,3S,4R)-2,3,4,5-tetrahydroxypentyl)-7,8-dihydropteridin-2,4,6(1H, 3H, 5H)-trione], in assay [1], the Mechanism of inhibition entry is on record as “Competitive”; the “Kcat (rate constant ES → E + P)” value was determined as 0.67 ± 0.02 m^−1; the “Ki (E + I ⇌ EI)” value is “submicromolar”; the “Ks” value came to 8.9 ± 0.7 µM. Also, the Mechanism of inhibition result in assay [2] is listed as “Competitive”. Further, in assay [2] (setting [5]), the “Kcat (rate constant ES → E + P)” value worked out at 0.59 ± 0.02 m^−1 and the “Ks” value came out at 19 ± 2 µM.

For the molecule `CCC(=O)Nc1c(OC[C@H](O)[C@H](O)[C@H](O)CO)[nH]c(=O)[nH]c1=O` [Compound 43], in assay [1], the Mechanism of inhibition entry was “Uncompetitive”; the “Kcat (rate constant ES → E + P)” value was found to be 0.21 ± 0.00 m^−1; the “Kis (ES + I ⇌ ESI)” value is above 1000 µM; the “Ks” value came out at 4.4 ± 0.2 µM. In assay [2], the Mechanism of inhibition entry is recorded as “Uncompetitive” and the “inhibitory activity in words” value was “totally inactive”. Besides, in assay [2] (pH 7), the “Kcat (rate constant ES → E + P)” value is on record as 0.39 ± 0.00 m^−1. Also, in assay [2] (setting [5]), the “Ks” value was 18 ± 2 µM.

On to `O=c1[nH]c(OC[C@H](O)[C@H](O)[C@H](O)CO)c([N+](=O)[O-])c(=O)[nH]1` [Compound 22, 5-Nitro-6-((2S,3R,4R)-2,3,4,5-tetrahydroxypentyloxy)pyrimidine-2,4(1H,3H)-dione], for which the Mechanism of inhibition entry is given as “Partial” in assay [1], “Competitive” in assay [3], “Competitive” in assay [2] and “Partial” in assay [4]. For the same molecule, the “Kcat (rate constant ES → E + P)” value in assay [1] is recorded as 0.26 ± 0.01 m^−1; in assay [3] (setting [6]) it was 3.3 ± 0.01 m^−1; in assay [2] (pH 7), 0.19 ± 0.00 m^−1; in assay [4], 1.4 ± 0.0 m^−1. Besides, the “Kis (ES + I ⇌ ESI)” value in assay [1] was 26 ± 6 µM; in assay [4], 110 ± 40 µM. The “Ks” value in assay [1] was found to be 7.1 ± 0.7 µM; in assay [3] (setting [6]), 2.6 ± 0.2 µM; in assay [2] (setting [5]) it was 25 ± 2 µM; in assay [4] it was 1.4 ± 0.1 µM.

As for `C=C(C)C(=O)Nc1c(Cl)[nH]c(=O)[nH]c1=O` [Compound 78, N-(6-Chloro-2,4-dioxo-1,2,3,4-tetrahydropyrimidin-5-yl)methacrylamide], in assay [1], the Mechanism of inhibition entry is given as “Uncompetitive”; the “Kcat (rate constant ES → E + P)” value is 0.58 ± 0.4 m^−1; the “Kis (ES + I ⇌ ESI)” value was found to be 694 ± 88 µM; the “Ks” value is 8.6 ± 0.4 µM. For the same molecule, the Mechanism of inhibition result in assay [2] is given as “Uncompetitive”. In addition, in assay [2] (setting [5]), the “Kcat (rate constant ES → E + P)” value was found to be 0.53 ± 0.03 m^−1; the “Kis (ES + I ⇌ ESI)” value was above 1000 µM; the “Ks” value was determined as 18 ± 2 µM.

Regarding `C=C(C)C(=O)Nc1c(SC[C@H](O)[C@H](O)[C@H](O)CO)[nH]c(=O)[nH]c1=O` [Compound 51], the results for the Mechanism of inhibition entry in assay [1] and in assay [2] were “Uncompetitive” and “Competitive”, respectively. Further, the “Kcat (rate constant ES → E + P)” value in assay [1] is reported as 0.84 ± 0.01 m^−1; in assay [2] (pH 7), 0.92 ± 0.03 m^−1. Besides, the “Kis (ES + I ⇌ ESI)” value in assay [1] is above 1000 µM. Besides, the “Ks” value in assay [1] was 10 ± 0 µM; in assay [2] (setting [5]), 17 ± 1 µM.

Turning to `COC(=O)C(=O)Nc1c(OC[C@H](O)[C@H](O)[C@H](O)CO)[nH]c(=O)[nH]c1=O` [Compound 37, Methyl 2-(2,4-dioxo-6-((2S,3R,4R)-2,3,4,5-tetrahydroxypentyloxy)1,2,3,4-tetrahydropyrimidin-5-ylamino)-2-oxoacetate], the Mechanism of inhibition result is listed as “Uncompetitive” in assay [1], “Uncompetitive” in assay [3], “Competitive” in assay [2] and “Partial” in assay [4]. In addition, the “Kcat (rate constant ES → E + P)” value in assay [1] is reported as 0.22 ± 0.01 m^−1; in assay [3] (setting [6]), 3.4 ± 0.1 m^−1; in assay [2] (pH 7), 0.18 ± 0.00 m^−1; in assay [4], 1.5 ± 0.0 m^−1. In assay [1], the “Ki (E + I ⇌ EI)” value was determined as 868 µM. The “Kis (ES + I ⇌ ESI)” value in assay [1] is 868 ± 305 µM; in assay [3] (setting [6]) it was above 1000 µM; in assay [4], 56 ± 15 µM. The “Ks” value was 4.1 ± 0.4 µM in assay [1], 3.1 ± 0.2 µM in assay [3] (setting [6]), 29 ± 2 µM in assay [2] (setting [5]) and 1.7 ± 0.2 µM in assay [4].

As to `CCC(=O)Nc1c(SC[C@H](O)[C@H](O)[C@H](O)CO)[nH]c(=O)[nH]c1=O` [Compound 49], in assay [1], the Mechanism of inhibition result is “Uncompetitive”; the “Kcat (rate constant ES → E + P)” value was 0.76 ± 0.01 m^−1; the “Kis (ES + I ⇌ ESI)” value was above 1000 µM; the “Ks” value stood at 10 ± 1 µM. Moreover, the Mechanism of inhibition entry in assay [2] is on record as “Competitive”. Further, the “Kcat (rate constant ES → E + P)” value in assay [2] (pH 7) was determined as 0.65 ± 0.01 m^−1. In addition, in assay [2] (setting [5]), the “Kis (ES + I ⇌ ESI)” value came out at 128 µM and the “Ks” value worked out at 11 ± 1 µM.

For the molecule `CC(C)C(=O)Nc1c(OC[C@H](O)[C@H](O)[C@H](O)CO)[nH]c(=O)[nH]c1=O` [Compound 40], in assay [1], the Mechanism of inhibition result is “Uncompetitive”; the “Kcat (rate constant ES → E + P)” value was found to be 0.84 ± 0.02 m^−1; the “Kis (ES + I ⇌ ESI)” value stood at 698 ± 108 µM; the “Ks” value worked out at 9.3 ± 0.6 µM. In addition, in assay [2], the Mechanism of inhibition result is reported as “Uncompetitive” and the “inhibitory activity in words” value was “totally inactive”. Further, the “Kcat (rate constant ES → E + P)” value in assay [2] (pH 7) turned out to be 0.59 ± 0.01 m^−1. Besides, in assay [2] (setting [5]), the “Kis (ES + I ⇌ ESI)” value stood at 766 ± 97 µM and the “Ks” value amounted to 16 ± 1 µM.

On to `CC(Cl)C(=O)Nc1c(NC[C@H](O)[C@H](O)[C@H](O)CO)[nH]c(=O)[nH]c1=O` (stereo partly drawn) [Compound 60, 2-Chloro-N-(2,4-dioxo-6-((2S,3S,4R)-2,3,4,5-tetrahydroxypentylamino)1,2,3,4-tetrahydropyrimidin-5-yl)propanamide], for which, in assay [1], the Mechanism of inhibition result is reported as “Competitive”; the “Kcat (rate constant ES → E + P)” value turned out to be 0.72 ± 0.01 m^−1; the “Ks” value was 11 ± 1 µM. Moreover, in assay [2], the Mechanism of inhibition entry is listed as “Competitive”. Besides, in assay [2] (setting [5]), the “Kcat (rate constant ES → E + P)” value is recorded as 0.85 ± 0.03 m^−1 and the “Ks” value was 17 ± 1 µM.

Values taken from publication PMC3444172 (The Journal of organic chemistry, 2012).
